{"source": "patent US8148349B2", "about": "“Nucleoside cyclic phosphoramidates for the treatment of RNA-dependent RNA viral infection” (Istituto di Ricerche di Biologia Molecolare P. Angeletti …, priority 2006, dated 2012)", "data": [{"tested_on": "subgenomic HCV Replicon in HuH-7 cells", "experiment": "Assay for Inhibition of HCV RNA Replication (Replicon assay)", "assay_type": "cell-based, Hepatitis C Virus", "settings": "Hepatitis C virus, Huh-7, read-out: Replicon Assay EC50", "experimental": "(§1) A. Assay for Inhibition of HCV RNA Replication:\n(§2) The compounds of the present invention are evaluated for their ability to affect the replication of Hepatitis C Virus RNA in cultured hepatoma (HuH-7) cells containing a subgenomic HCV Replicon. The details of the assay are described below. This Replicon assay is a modification of that described in V. Lohmann, F. Korner, J-O. Koch, U. Herian, L. Theilmann, and R. Bartenschlager, “Replication of a Sub-genomic Hepatitis C Virus RNAs in a Hepatoma Cell Line,” Science 285:110 (1999).\n(§3) The assay is an in situ Ribonuclease protection, Scintillation Proximity based-plate assay (SPA). 10,000-40,000 cells are plated in 100-200 μL of media containing 0.8 mg/mL G418 in 96-well cytostar plates (Amersham). Compounds are added to cells at various concentrations up to 100 μM in 1% DMSO at time 0 to 18 h and then cultured for 24-96 h. Cells are fixed (20 min, 10% formalin), permeabilized (20 min, 0.25% Triton X-100/PBS) and hybridized (overnight, 50° C.) with a single-stranded ^33P RNA probe complementary to the (+) strand NS5B (or other genes) contained in the RNA viral genome. Cells are washed, treated with RNAse, washed, heated to 65° C. and counted in a Top-Count. Inhibition of replication is read as a decrease in counts per minute (cpm).\n(§4) Human HuH-7 hepatoma cells, which are selected to contain a subgenomic replicon, carry a cytoplasmic RNA consisting of an HCV 5′ non-translated region (NTR), a neomycin selectable marker, an EMCV IRES (internal ribosome entry site), and HCV non-structural proteins NS3 through NS5B, followed by the 3′ NTR.", "units": {"EC50": "µM"}, "values": [{"compound": "CCOC(=O)[C@H](CC)NP1(=O)OC[C@H]2O[C@@H](n3ccc(N)nc3=O)[C@](C)(O)[C@@H]2O1", "note": "(stereo partly drawn) [Example 6, ethyl (2S)-2-{[(4aR,6R,7R,7aR)-6-(4-amino-2-oxopyrimidin-1(2H)-yl)-7-hydroxy-7-methyl-2-oxidotetrahydro-4H-furo[3,2d][1,3,2]dioxaphosphinin-2-yl]amino}butanoate]", "EC50": 6}, {"compound": "CCCCOC(=O)[C@H](C)NP1(=O)OC[C@H]2O[C@@H](n3ccc(N)nc3=O)[C@](C)(O)[C@@H]2O1", "note": "(stereo partly drawn) [Example 5, n-butyl N-[(4aR,6R,7R,7aR)-6-(4-amino-2-oxopyrimidin-1(2H)-yl)-7-hydroxy-7-methyl-2-oxidotetrahydro-4H-furo[3,2d][1,3,2]dioxaphosphinin-2-yl]-L-alaninate]", "EC50": 15}, {"compound": "CCCCOC(=O)[C@H](C)NP1(=O)OC[C@H]2O[C@@H](n3ccc(N)nc3=O)[C@](C)(O)[C@@H]2O1", "note": "(single isomer, unassigned) [Example 1]", "EC50": 15}, {"compound": "CCC[C@H](NP1(=O)OC[C@H]2O[C@@H](n3ccc(N)nc3=O)[C@](C)(O)[C@@H]2O1)C(=O)OCC", "note": "(stereo partly drawn) [Example 8, ethyl N-[(4aR,6R,7R,7aR)-6-(4-amino-2-oxopyrimidin-1(2H)-yl)-7-hydroxy-7-methyl-2-oxidotetrahydro-4H-furo[3,2-d][1,3,2]dioxaphosphinin-2-yl]-L-norvalinate]", "EC50": "> 20"}, {"compound": "CCOC(=O)[C@H](C)NP1(=O)OC[C@H]2O[C@@H](n3ccc(N)nc3=O)[C@](C)(O)[C@@H]2O1", "note": "(stereo partly drawn) [Example 10, ethyl N-[(4aR,6R,7R,7aR)-6-(4-amino-2-oxopyrimidin-1(2H)-yl)-7-hydroxy-7-methyl-2oxidotetrahydro-4H-furo[3,2-d][1,3,2]-dioxaphosphinin-2-yl]-L-alaninate]", "EC50": 4}, {"compound": "C[C@H](NP1(=O)OC[C@H]2O[C@@H](n3ccc(N)nc3=O)[C@](C)(O)[C@@H]2O1)C(=O)OC(C)(C)C", "note": "(stereo partly drawn) [Example 4, tert-butyl N-[(4aR,6R,7R,7aR)-6-(4-amino-2-oxopyrimidin-1(2H)-yl)-7-hydroxy-7-methyl-2-oxidotetrahydro-4H-furo[3,2d][1,3,2]dioxaphosphinin-2-yl]-L-alaninate]", "EC50": "> 20"}, {"compound": "CCOC(=O)[C@H](C)NP1(=O)OC[C@H]2O[C@@H](n3ccc(N)nc3=O)[C@](C)(O)[C@@H]2O1", "note": "(single isomer, unassigned) [Example 2]", "EC50": 4}]}, {"tested_on": "subgenomic HCV Replicon in HuH-7 cells", "experiment": "Assay for Inhibition of HCV RNA Replication (Replicon assay)", "assay_type": "cell-based, Hepatitis C Virus", "settings": "Hepatitis C virus; HuH-7 cells containing a subgenomic HCV Replicon; read-out: Replicon Assay EC50", "experimental": "as §1, §2, §3, §4", "units": {"EC50": "µM"}, "values": [{"compound": "CCCC(CCC)C(=O)Nc1ccn([C@@H]2O[C@@H]3COP(=O)(N[C@@H](C)C(=O)OCC)O[C@H]3[C@@]2(C)O)c(=O)n1", "note": "(stereo partly drawn) [Example 21, ethyl N-{(4aR,6R,7R,7aR)-7-hydroxy-7-methyl-2-oxido-6-[2-oxo-4-[(2-propylpentanoyl)amino]pyrimidin-1(2H)-yl]tetrahydro-4H-furo[3,2-d][1,3,2]dioxaphosphinin-2-yl}-L-alaninate]", "EC50": "> 20"}, {"compound": "CCCC(CCC)C(=O)Nc1ccn([C@@H]2O[C@@H]3COP(=O)(N[C@@H](CC)C(=O)OCC)O[C@H]3[C@@]2(C)O)c(=O)n1", "note": "(stereo partly drawn) [Example 20, Ethyl (2S)-2-({(4aR,6R,7R,7aR)-7-hydroxy-7-methyl-2-oxido-6-[2-oxo-4-[(2-propylpentanoyl)amino]pyrimidin-1(2H)-yl]tetrahydro-4H-furo[3,2-d][1,3,2]dioxaphosphinin-2-yl}amino)butanoate]", "EC50": "> 20"}, {"compound": "CCC(CC)COC(=O)[C@H](C)NP1(=O)OC[C@H]2O[C@@H](n3ccc(N)nc3=O)[C@](C)(O)[C@@H]2O1", "note": "(stereo partly drawn) [Example 15, 2-ethylbutyl N-[(4aR,6R,7R,7aR)-6-(4-amino-2-oxopyrimidin-1(2H)-yl)-7-hydroxy-7-methyl-2-oxidotetrahydro-4H-furo[3,2-d][1,3,2]dioxaphosphinin-2-yl]-L-alaninate]", "EC50": "> 20"}, {"compound": "C[C@H](NP1(=O)OC[C@H]2O[C@@H](n3ccc(N)nc3=O)[C@](C)(O)[C@@H]2O1)C(=O)OC1CCCCC1", "note": "(stereo partly drawn) [Example 12, cyclohexyl N-[(4aR,6R,7R,7aR)-6-(4-amino-2-oxopyrimidin-1(2H)-yl)-7-hydroxy-7-methyl-2oxidotetrahydro-4Hfuro[3,2d][1,3,2]dioxaphosphinin-2-yl]-L-alaninate]", "EC50": "> 20"}, {"compound": "C[C@H](NP1(=O)OC[C@H]2O[C@@H](n3ccc(N)nc3=O)[C@](C)(O)[C@@H]2O1)C(=O)OC1CCCCCC1", "note": "(stereo partly drawn) [Example 18, cycloheptyl N-[(4aR,6R,7R,7aR)-6-(4-amino-2-oxopyrimidin-1(2H)-yl)-7-hydroxy-7-methyl-2-oxidotetrahydro-4H-furo[3,2-d][1,3,2]dioxaphosphinin-2-yl]-L-alaninate]", "EC50": "> 10"}, {"compound": "C[C@H](NP1(=O)OC[C@H]2O[C@@H](n3ccc(N)nc3=O)[C@](C)(O)[C@@H]2O1)C(=O)OC1CCCC1", "note": "(stereo partly drawn) [Example 9, cyclopentyl N-[(4aR,6R,7R,7aR)-6-(4-amino-2-oxopyrimidin-1(2H)-yl)-7-hydroxy-7-methyl-2-oxidotetrahydro-4H-furo[3,2d][1,3,2]-dioxaphosphinin-2-yl]-L-alaninate]", "EC50": "> 20"}, {"compound": "CCCCCCCOC(=O)[C@H](C)NP1(=O)OC[C@H]2O[C@@H](n3ccc(N)nc3=O)[C@](C)(O)[C@@H]2O1", "note": "(stereo partly drawn) [Example 11, n-heptyl N-[(4aR,6R,7R,7aR)-6-(4-amino-2-oxopyrimidin-1(2H)-yl)-7-hydroxy-7-methyl-2oxidotetrahydro-4Hfuro[3,2d][1,3,2]-dioxaphosphinin-2-yl]-L-alaninate]", "EC50": 10}, {"compound": "CCCCCCCOC(=O)[C@H](C)NP1(=O)OC[C@H]2O[C@@H](n3ccc(NC(=O)OCCCN(C)C)nc3=O)[C@](C)(O)[C@@H]2O1", "note": "(stereo partly drawn) [Example 23, n-heptyl N-{(4aR,6R,7R,7aR)-6-[4-({[3-(dimethylamino)propoxy]carbonyl}amino)-2-oxopyrimidin-1(2H)-yl]-7-hydroxy-7-methyl-2-oxidotetrahydro-4H-furo[3,2-d][1,3,2]dioxaphosphinin-2-yl}-L-alaninate]", "EC50": "> 20"}, {"compound": "CCCC(CCC)COC(=O)[C@H](C)NP1(=O)OC[C@H]2O[C@@H](n3ccc(N)nc3=O)[C@](C)(O)[C@@H]2O1", "note": "(stereo partly drawn) [Example 16, 2-propylpentyl N-[(4aR,6R,7R,7aR)-6-(4-amino-2-oxopyrimidin-1(2H)-yl)-7-hydroxy-7-methyl-2-oxidotetrahydro-4H-furo[3,2-d][1,3,2]dioxaphosphinin-2-yl]-L-alaninate]", "EC50": 14}, {"compound": "C[C@H](NP1(=O)OC[C@H]2O[C@@H](n3ccc(N)nc3=O)[C@](C)(O)[C@@H]2O1)C(=O)OCCCC1CCCCC1", "note": "(stereo partly drawn) [Example 19, 3-cyclohexylpropyl N-[(4aR,6R,7R,7aR)-6-(4-amino-2-oxopyrimidin-1(2H)-yl)-7-hydroxy-7-methyl-2-oxidotetrahydro-4H-furo[3,2-d][1,3,2]dioxaphosphinin-2-yl]-L-alaninate]", "EC50": 10}, {"compound": "CCOC(=O)[C@H](CC(C)C)NP1(=O)OC[C@H]2O[C@@H](n3ccc(N)nc3=O)[C@](C)(O)[C@@H]2O1", "note": "(stereo partly drawn) [Example 7, ethyl N-[(4aR,6R,7R,7aR)-6-(4-amino-2-oxopyrimidin-1(2H)-yl)-7-hydroxy-7-methyl-2-oxidotetrahydro-4H-furo[3,2-d][1,3,2]dioxaphosphinin-2-yl]-L-leucinate]", "EC50": 50}, {"compound": "CCCCCCCOC(=O)[C@H](C)NP1(=O)OC[C@H]2O[C@@H](n3ccc(N)nc3=O)[C@](C)(O)[C@@H]2O1", "note": "(single isomer, unassigned) [Example 3]", "EC50": 5}, {"compound": "CC(C)CCOC(=O)[C@H](C)NP1(=O)OC[C@H]2O[C@@H](n3ccc(N)nc3=O)[C@](C)(O)[C@@H]2O1", "note": "(stereo partly drawn) [Example 13, isopentyl N-[(4aR,6R,7R,7aR)-6-(4-amino-2-oxopyrimidin-1(2H)-yl)-7-hydroxy-7-methyl-2-oxidotetrahydro-4H-furo[3,2d][1,3,2]-dioxaphosphinin-2-yl]-L-alaninate]", "EC50": "> 20"}, {"compound": "CCCCCCOCCOC(=O)[C@H](C)NP1(=O)OC[C@H]2O[C@@H](n3ccc(N)nc3=O)[C@](C)(O)[C@@H]2O1", "note": "(stereo partly drawn) [Example 17, 2-(hexyloxy)ethyl N-[(4aR,6R,7R,7aR)-6-(4-amino-2-oxopyrimidin-1(2H)-yl)-7-hydroxy-7-methyl-2-oxidotetrahydro-4H-furo[3,2-d][1,3,2]dioxaphosphinin-2-yl]-L-alaninate]", "EC50": 15}]}, {"tested_on": "subgenomic HCV Replicon in HuH-7 cells", "experiment": "Assay for Inhibition of HCV RNA Replication (Replicon assay)", "assay_type": "cell-based, Hepatitis C Virus", "settings": "HuH-7 cells containing a subgenomic HCV Replicon; read-out: Replicon Assay EC50", "experimental": "as §1, §2, §3, §4", "units": {"EC50": "µM"}, "values": [{"compound": "COCCCOC(=O)[C@H](C)NP1(=O)OC[C@H]2O[C@@H](n3ccc(N)nc3=O)[C@](C)(O)[C@@H]2O1", "note": "(stereo partly drawn) [Example 14, 3-methoxypropyl N[(4aR,6R,7R,7aR)-6-(4-amino-2-oxopyrimidin-1(2H)-yl)-7-hydroxy-7-methyl-2-oxidotetrahydro-4H-furo[3,2-d][1,3,2]dioxaphosphinin-2-yl]-L-alaninate]", "EC50": 28}, {"compound": "n-heptyl N-{(4aR,6R,7R,7aR)-7-hydroxy-7-methyl-6-[4-[(1-methylene-2-propylpentyl)amino]-2-oxopyrimidin-1(2H)-yl]-2-oxidotetrahydro-4H-furo[3,2-d][1,3,2]dioxaphosphinin-2-yl}-L-alaninate [Example 22]", "EC50": 12}]}]}
